Source: the OPERA property sets (Mansouri et al. 2018)

logP | SMILES
0.63 | O=C(Cc1ccccc1)NCCNCC(O)COc1ccccc1 (stereo not given)
1.24 | O=C(Cc1ccccc1)NCCNCC(O)COCCc1ccccc1 (stereo not given)
1.76 | O=C(Cc1ccccc1)NCCNCC(O)COCC=Cc1ccccc1 (stereo not given)
1.62 | O=C(Cc1ccccc1)NCCNCC(O)COCCCc1ccccc1 (stereo not given)
1.05 | O=C(Cc1ccccc1)NCCNCC(O)OCc1ccccc1 (stereo not given)
1.68 | O=C(Cc1ccccc1)NCCNCC(O)COC1CCCc2ccccc21 (stereo not given)
0.63 | CC(C)C(=O)NCCNCC(O)COCc1ccccc1 (stereo not given)
0.75 | O=C(Cc1ccccc1)NCCNCC(O)COCCOc1ccccc1 (stereo not given)
0.51 | CC(C)C(=O)NCCNCC(O)COCC=Cc1ccccc1 (stereo not given)

The next lines start with the compound.

SMILES | logP
CC(C)C(=O)NCCNCC(O)COCCCc1ccccc1 (stereo not given) | 1.25
CC(C)C(=O)NCCNCC(O)COCCc1ccccc1 (stereo not given) | 0.95
CC(C)NCC(O)COCc1ccccc1 (stereo not given) | 1.62
CC(C)(C)NCC(O)COc1ccccc1 (stereo not given) | 1.5
CC(C)NCC(O)COCCCC(C)c1ccccc1 (stereo not given) | 2.95
CC(C)(C)NCC(O)COC1CCCc2ccccc21 (stereo not given) | 3.55
CC(C)(C)NCC(O)COCCOc1ccccc1 (stereo not given) | 2.35
CC(C)NCC(O)COCCOc1ccccc1 (stereo not given) | 1.63
CC(C)NCC(O)COCCc1ccccc1 (stereo not given) | 1.76
CC(C)C(=O)NCCNCC(O)COc1ccccc1 (stereo not given) | 1.14
CC(C)C(=O)NCCNCC(O)COCCOc1ccccc1 (stereo not given) | 0.48
CC(C)(C)NCC(O)COCC=Cc1ccccc1 (stereo not given) | 2.29
CC(C)(C)NCC(O)COCc1ccccc1 (stereo not given) | 1.7
CC(C)NCC(O)COCC=Cc1ccccc1 (stereo not given) | 2.15
CC(C)C(=O)NCCNCC(O)COC1CCCc2ccccc21 (stereo not given) | 1.99
CC(C)(C)NCC(O)COCCc1ccccc1 (stereo not given) | 2.52
